PubChem BioAssay (NCI)
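Interpolation was linear, between the two tested concentrations surrounding the appropriate level; five concentrations were tested over 48 hours in 96-well plates. GI50 = concentration required for 50% inhibition of growth. TGI is the concentration that stops growth completely.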

Assays:
Test in all cases: NCI-60 cell line screen, 48 h
XF 498 CNS = tested on: XF 498 CNS
SF-268 CNS = tested on: SF-268 CNS
HT29 colon = tested on: HT29 colon
DMS 273 small cell lung = tested on: DMS 273 small cell lung
OVCAR-4 ovarian = tested on: OVCAR-4 ovarian
SR leukemia = tested on: SR leukemia
SF-539 CNS = tested on: SF-539 CNS
MCF7 breast = tested on: MCF7 breast
ACHN renal = tested on: ACHN renal
CAKI-1 renal = tested on: CAKI-1 renal
KM20L2 colon = tested on: KM20L2 colon
DMS 114 small cell lung = tested on: DMS 114 small cell lung

SMILES | TGI (XF 498 CNS) | TGI (SF-268 CNS) | TGI (HT29 colon) | TGI (DMS 273 small cell lung) | TGI (OVCAR-4 ovarian) | TGI (SR leukemia) | TGI (SF-539 CNS) | TGI (MCF7 breast) | TGI (ACHN renal) | TGI (CAKI-1 renal) | TGI (KM20L2 colon) | TGI (DMS 114 small cell lung) | GI50 (SF-268 CNS) | GI50 (HT29 colon) | GI50 (OVCAR-4 ovarian) | GI50 (SR leukemia) | GI50 (SF-539 CNS) | GI50 (MCF7 breast) | GI50 (ACHN renal) | GI50 (CAKI-1 renal)
C[C@]12CCNC(=O)C=C1CC[C@@H]1C2CC[C@@]2(C)C1CC[C@@H]2OC(=O)COc1ccc(N(CCCl)CCCl)cc1 (stereo partly drawn) | 4.89 µM | 23.8 µM | 27.5 µM | 12.2 µM | 20.5 µM | 15.7 µM | 9.01 µM | 14.8 µM | 11.2 µM | 23 µM | 30.3 µM |  |  |  |  |  |  |  |  | 
CCOc1ccc(O)cc1[P+](c1ccccc1)(c1ccccc1)c1ccccc1 | 4.52 µM | > 100 µM | 17.6 µM | 10.1 µM | 19.4 µM |  | 17.8 µM |  | 81.7 µM | 23.4 µM | 17.9 µM |  |  |  |  |  |  |  |  | 
NCCCCCCNCc1cccc2ccccc12 | > 100 µM |  | > 100 µM |  | > 100 µM | > 100 µM | > 100 µM |  | > 100 µM | > 100 µM | > 100 µM | > 100 µM |  |  |  |  |  |  |  | 
COc1cc2c(cc1C1=NC(C)(C)CO1)OCO2 | > 100 µM | > 100 µM | > 100 µM |  | > 100 µM | > 100 µM | > 100 µM |  | > 100 µM | > 100 µM | > 100 µM | > 100 µM |  |  |  |  |  |  |  | 
O=C1C2C3C=C4c5ccccc5N(c5ccccc5)C4(C2C(=O)N1c1ccc(Br)cc1)[C@H]1C(=O)N(c2ccc(Br)cc2)C(=O)[C@@H]31 (stereo partly drawn) | > 100 µM |  | > 100 µM | > 100 µM | > 100 µM | > 100 µM | > 100 µM |  |  | 81.5 µM | > 100 µM |  |  |  |  |  |  |  |  | 
COC(=O)/C=c1\s/c(=C\C(=O)OC)c2ccccc12 |  | > 100 µM | > 100 µM | > 100 µM | > 100 µM |  | > 100 µM |  | > 100 µM | > 100 µM | > 100 µM | > 100 µM |  |  |  |  |  |  |  | 
O=c1oc2ccc(-c3ccc(F)cc3F)cc2c(=O)n1-c1ccc(Cl)c(C(F)(F)F)c1 |  | 9.13 µM | > 100 µM |  | > 100 µM | 8.8 µM | 7.09 µM | > 100 µM | 9.8 µM | 6.35 µM |  |  | 2.51 µM | 3.07 µM | 3.16 µM | 2.43 µM | 2.54 µM | 2.45 µM | 3.12 µM | 1.91 µM
COc1ccc(Nc2nc3cc(N)cc(N)c3nc2-c2ccccc2)cc1OC |  | 47.1 µM | 52.7 µM |  | 52.1 µM | 21.8 µM | 37.5 µM | 44.8 µM | > 100 µM | 66 µM |  |  | 14.2 µM | 25.2 µM | 18.7 µM | 2.67 µM | 16.2 µM | 20.5 µM | 27.4 µM | 18.3 µM
O=C(C[P+](c1ccccc1)(c1ccccc1)c1ccccc1)C[P+](c1ccccc1)(c1ccccc1)c1ccccc1 |  | 1.95 µM | 0.734 µM |  | 0.269 µM | 3.89 µM | 1.13 µM | 1.6 µM | 0.393 µM | 0.357 µM |  |  | 0.591 µM | 0.285 µM | 0.135 µM | 0.31 µM | 0.286 µM | 0.332 µM | 0.144 µM | 0.161 µM
Cn1c(=S)c2[nH]c(SCCN3C(=O)c4ccccc4C3=O)nc2n(C)c1=O |  | > 100 µM | > 100 µM |  | > 100 µM | > 100 µM | > 100 µM | > 100 µM | > 100 µM | > 100 µM |  |  |  |  |  |  |  |  |  | 
NC(=S)N=Nc1c(O)c2ccccc2c2ccccc12 |  | 35.7 µM | > 100 µM |  | 37 µM | 35.8 µM | 9.16 µM | 4.54 µM | > 100 µM | > 100 µM |  |  | 10.2 µM | 19.3 µM | 13 µM | 9.64 µM | 2.48 µM | 1.88 µM | 8.07 µM | 37.9 µM
CCCN(CCC)c1c([N+](=O)[O-])cc(C(=O)N(CCO)CCO)cc1[N+](=O)[O-] | > 100 µM | > 100 µM | > 100 µM | > 100 µM | > 100 µM |  | > 100 µM |  | > 100 µM | > 100 µM |  |  |  |  |  |  |  |  |  | 
CCOC(=O)/C=C/C(=O)[C@H](CC(C)C)NC(=O)[C@H](Cc1ccccc1)NC(=O)OCc1ccccc1 |  | 13.3 µM | 38.6 µM |  | 26.6 µM | 6.32 µM | 6.04 µM | 4.8 µM | 5.72 µM | 21.7 µM |  |  | 3.3 µM | 5.44 µM | 12.9 µM | 2.39 µM | 2.45 µM | 1.73 µM | 2.36 µM | 8.82 µM
CN(C)CCNC(=O)c1cccc2ccc(-c3ccc(-c4ccccc4)cc3)nc12 |  | 10.4 µM | 3.72 µM | 3.24 µM | 6.74 µM | 4.64 µM | 3.31 µM |  | 12.8 µM | 11 µM | 4.67 µM | 3.07 µM |  |  |  |  |  |  |  | 
COc1ccc(C2C=C(c3ccc(Cl)cc3)N=C3SC=C(C)N32)c(Br)c1 (stereo not drawn) |  | 13.1 µM | 12.7 µM |  | 34.6 µM | 14.9 µM | 5.37 µM | 12.5 µM | 17.4 µM | 12.4 µM |  |  | 3.17 µM | 3.62 µM | 3.89 µM | 2.06 µM | 2.15 µM | 2.32 µM | 3.64 µM | 2.98 µM
O=C(Nc1ccccc1O)c1ccc(NS(=O)(=O)c2cccc3cccnc23)cc1 |  | 8.18 µM | > 16 µM |  | 24.5 µM | 13.9 µM | 10.1 µM | > 18.2 µM | 5.78 µM | 4.8 µM |  |  | 1.54 µM | 1.18 µM | 2.24 µM | 1.31 µM | 0.76 µM | 0.941 µM | 1.21 µM | 0.998 µM
CN1CCN(Cc2ccc3c(NNC(=O)c4ccccc4)nc4cc(F)ccc4n23)CC1 |  | > 100 µM | > 49 µM |  | 37.1 µM | 15.7 µM | 8.22 µM | 11.8 µM | 11.6 µM | 14.4 µM |  |  | 0.454 µM | 0.587 µM | 0.335 µM | 0.282 µM | 0.491 µM | 0.359 µM | 0.0848 µM | 0.248 µM
N#Cc1ccc2cc3c(cc2c1)OCO3 |  | > 100 µM | > 100 µM | > 100 µM | > 100 µM |  | > 100 µM |  | > 100 µM |  | > 100 µM | > 100 µM |  |  |  |  |  |  |  | 
Clc1ccccc1C(Nc1ncccn1)Nc1ncccn1 |  | > 100 µM | > 100 µM |  | > 100 µM | > 100 µM | > 100 µM | > 100 µM | > 100 µM | > 100 µM |  |  |  |  |  |  |  |  |  | 
O=C(CCc1nnc2s/c(=C\c3ccccc3Cl)c(=O)n12)Nc1cc(Cl)ccc1Cl | > 100 µM | > 100 µM | > 100 µM |  | > 100 µM | > 100 µM | > 100 µM |  | > 100 µM | > 100 µM |  | > 100 µM |  |  |  |  |  |  |  | 
CC(=O)N(O)Cc1ccccc1 | > 100 µM | > 100 µM | > 100 µM |  | > 100 µM | > 100 µM | > 100 µM |  | > 100 µM | > 100 µM | > 100 µM | > 100 µM |  |  |  |  |  |  |  | 
O=c1cc(-c2ccccc2)oc2cc(OC/C(=N/O)c3ccc(F)cc3)ccc12 |  | > 50 µM | > 50 µM |  | > 50 µM | > 50 µM | 26 µM | 31 µM | > 50 µM | 38.6 µM |  |  | 19.7 µM | 29.6 µM | > 50 µM | 23 µM | 11.5 µM | 11.9 µM | 19.2 µM | 11.8 µM
COc1cc(NCCN=C(N)NC(N)=NC(C)C)c2ncccc2c1 |  | > 100 µM | > 100 µM |  | 1.23 µM | > 100 µM | 20 µM | 0.116 µM | > 100 µM | > 100 µM |  |  | 3.98 µM | 7.91 µM | 0.0708 µM | 15 µM | 4.06 µM | 0.0297 µM | > 100 µM | > 100 µM
c1ccc([As]=[As]c2ccccc2)cc1 (stereo not drawn) |  | 2.45 µM | 3.61 µM |  | 2.43 µM | 1.95 µM | 2.36 µM | 1.07 µM | 2.65 µM | 3.22 µM |  |  | 0.886 µM | 1.74 µM | 1.08 µM | 0.302 µM | 0.884 µM | 0.251 µM | 1.28 µM | 1.31 µM
COc1ccc(Cn2cc3c(c2-c2ccccc2)CCc2cnoc2-3)cc1N |  | > 100 µM | 15.1 µM |  | > 100 µM | 4.25 µM | 0.579 µM | > 100 µM | > 100 µM | > 100 µM |  |  | 0.812 µM | 1.78 µM | 0.898 µM | 0.0528 µM | 0.158 µM | 0.05 µM | 1.11 µM | 0.116 µM
Cc1cc(=O)[nH]c(CNC(=O)c2cccc(C(=O)NCc3cc(=O)[nH]c(C)n3)c2)n1 |  | > 100 µM | > 100 µM | > 100 µM | > 100 µM |  | > 100 µM |  | > 100 µM |  | > 100 µM | > 100 µM |  |  |  |  |  |  |  | 
CCOC(=O)c1ccc2c(c1)[n+](=O)c(C(C)=O)c(C(F)(F)F)n2[O-] |  | 2.93 µM | 3.11 µM |  | 3.22 µM | 0.625 µM | 3.31 µM | 2.61 µM | 3.01 µM | 2.94 µM |  |  | 1.49 µM | 1.58 µM | 1.36 µM | 0.197 µM | 1.71 µM | 1.24 µM | 1.59 µM | 1.39 µM
